The values below come from PubChem BioAssay (NCI).

“And” between values parts separate entries of the source, which are not always exact repeats. Equal entries are not always repeated.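 In this assay, cells in 96-well plates receive the compound at five concentrations for 48 hours. Endpoints are linearly interpolated between the surrounding concentrations. GI50 is the concentration that inhibits growth by half. At the TGI there is no net growth.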

One experiment has as its system U251 CNS. Put plainly: NCI tumour cell line growth inhibition, 48 h.
`COC1(OC)CCc2c(sc3ncnc(Nc4cccc(Br)c4)c23)C1` yielded a TGI of more than 100 µM.
Same read-out and setting: with `C=CCC(CCC(C)=O)(C(=O)OCC)C(=O)OCC` the figure was more than 100 µM; with `CC(C)C(Cl)CCC(C)(Cl)C(=O)CBr` (stereo not drawn), 25.8 µM.
On the same count and under the same terms, with `Cn1c2ccccc2c(=O)c2c(O)cc3c(c21)C1OCC(C)(O)C1O3` (stereo not drawn) the figure was 62.5 µM.
Still for that read-out and setting: with `COC(=O)[C@@H]1CO[C@H](C(C)(C)C)N1C(=O)N1C=CC(=O)C[C@H]1C` the figure was more than 100 µM.
The molecule `NCCOc1cccc(C2(N3CCCCC3)CCCCC2)c1` registered a TGI of 35.1 µM.
The same measure, in the same setting: with `O=C1CC(O)c2cscc21` (stereo not drawn) the figure was more than 100 µM.
Take `COc1cc([C@@H]2c3cc4c(cc3[C@@H](Nc3ccc(NC(=O)c5cc([N+](=O)[O-])cn5C)cc3)[C@H]3COC(=O)[C@H]23)OCO4)cc(OC)c1O`: the GI50 was 0.0436 µM and 0.337 µM; the TGI is more than 57.5 µM.

The test system of another experiment is A549 NSCLC. Put plainly: NCI tumour cell line growth inhibition, 48 h.
Turning to `COC1(OC)CCc2c(sc3ncnc(Nc4cccc(Br)c4)c23)C1`, the TGI was more than 100 µM.
`C=CCC(CCC(C)=O)(C(=O)OCC)C(=O)OCC` gave a TGI of more than 100 µM.
Same read-out and setting: with `CC(C)C(Cl)CCC(C)(Cl)C(=O)CBr` (stereo not drawn) the figure was 53.4 µM; with `Cn1c2ccccc2c(=O)c2c(O)cc3c(c21)C1OCC(C)(O)C1O3` (stereo not drawn), more than 100 µM.
Same read-out and setting: with `COC(=O)[C@@H]1CO[C@H](C(C)(C)C)N1C(=O)N1C=CC(=O)C[C@H]1C` the figure was more than 100 µM.
On to `NCCOc1cccc(C2(N3CCCCC3)CCCCC2)c1`, for which the TGI is more than 100 µM.
Same read-out and setting: under `COc1cc([C@@H]2c3cc4c(cc3[C@@H](Nc3ccc(NC(=O)c5cc([N+](=O)[O-])cn5C)cc3)[C@H]3COC(=O)[C@H]23)OCO4)cc(OC)c1O` stands 1.31 µM and 0.309 µM.

In the next experiment the test system is NCI-H226 lung. Put plainly: NCI tumour cell line growth inhibition, 48 h.
Consider `COC1(OC)CCc2c(sc3ncnc(Nc4cccc(Br)c4)c23)C1`, for which the TGI was more than 100 µM.
The same measure, in the same setting: under `C=CCC(CCC(C)=O)(C(=O)OCC)C(=O)OCC` stands more than 100 µM; under `CC(C)C(Cl)CCC(C)(Cl)C(=O)CBr` (stereo not drawn), 44.5 µM; under `Cn1c2ccccc2c(=O)c2c(O)cc3c(c21)C1OCC(C)(O)C1O3` (stereo not drawn), 63.5 µM.
For the molecule `COC(=O)[C@@H]1CO[C@H](C(C)(C)C)N1C(=O)N1C=CC(=O)C[C@H]1C`, the TGI was more than 100 µM.
The molecule `NCCOc1cccc(C2(N3CCCCC3)CCCCC2)c1` registered a TGI of more than 100 µM.
On to `O=C1CC(O)c2cscc21` (stereo not drawn), for which the TGI was more than 100 µM.
Take `O=[N+]([O-])c1cccc2nc3ccccc3c(NCCCCCNc3c4ccccc4nc4cccc([N+](=O)[O-])c34)c12`: the GI50 was 0.0249 µM; the TGI was 0.562 µM and 1.94 µM.
Take `COc1cc([C@@H]2c3cc4c(cc3[C@@H](Nc3ccc(NC(=O)c5cc([N+](=O)[O-])cn5C)cc3)[C@H]3COC(=O)[C@H]23)OCO4)cc(OC)c1O`: the GI50 was 0.179 µM and 0.0249 µM; the TGI is 0.29 µM.

In the next experiment the test system is MDA-MB-231 breast. Put plainly: NCI tumour cell line growth inhibition, 48 h.
With `COC1(OC)CCc2c(sc3ncnc(Nc4cccc(Br)c4)c23)C1`, the TGI was more than 100 µM.
Same read-out and setting: with `C=CCC(CCC(C)=O)(C(=O)OCC)C(=O)OCC` the figure was more than 100 µM; with `CC(C)C(Cl)CCC(C)(Cl)C(=O)CBr` (stereo not drawn), 21.5 µM.
On the same count and under the same terms, under `Cn1c2ccccc2c(=O)c2c(O)cc3c(c21)C1OCC(C)(O)C1O3` (stereo not drawn) stands more than 100 µM; under `COC(=O)[C@@H]1CO[C@H](C(C)(C)C)N1C(=O)N1C=CC(=O)C[C@H]1C`, more than 100 µM; under `NCCOc1cccc(C2(N3CCCCC3)CCCCC2)c1`, 46.3 µM.
On the same count and under the same terms, under `O=C1CC(O)c2cscc21` (stereo not drawn) stands more than 100 µM.
In turn, `O=[N+]([O-])c1cccc2nc3ccccc3c(NCCCCCNc3c4ccccc4nc4cccc([N+](=O)[O-])c34)c12` registered a TGI of 0.0927 µM.
In the case of `COc1cc([C@@H]2c3cc4c(cc3[C@@H](Nc3ccc(NC(=O)c5cc([N+](=O)[O-])cn5C)cc3)[C@H]3COC(=O)[C@H]23)OCO4)cc(OC)c1O`, the GI50 was 1.34 µM and 4.74 µM; the TGI was 17.3 µM and 14.6 µM.

The test system of another experiment is NCI-H23 lung. Put plainly: NCI tumour cell line growth inhibition, 48 h.
In turn, `COC1(OC)CCc2c(sc3ncnc(Nc4cccc(Br)c4)c23)C1` yielded a TGI of more than 100 µM.
Molecule `C=CCC(CCC(C)=O)(C(=O)OCC)C(=O)OCC` showed a TGI of more than 100 µM.
On the same count and under the same terms, with `CC(C)C(Cl)CCC(C)(Cl)C(=O)CBr` (stereo not drawn) the figure was 21.8 µM.
Same read-out and setting: under `COC(=O)[C@@H]1CO[C@H](C(C)(C)C)N1C(=O)N1C=CC(=O)C[C@H]1C` stands more than 100 µM; under `NCCOc1cccc(C2(N3CCCCC3)CCCCC2)c1`, more than 100 µM.
Still for that read-out and setting: with `O=C1CC(O)c2cscc21` (stereo not drawn) the figure was more than 100 µM; with `O=[N+]([O-])c1cccc2nc3ccccc3c(NCCCCCNc3c4ccccc4nc4cccc([N+](=O)[O-])c34)c12`, 0.185 µM; with `COc1cc([C@@H]2c3cc4c(cc3[C@@H](Nc3ccc(NC(=O)c5cc([N+](=O)[O-])cn5C)cc3)[C@H]3COC(=O)[C@H]23)OCO4)cc(OC)c1O`, 4.04 µM and 0.546 µM.

In another experiment the test system is HS 578T breast. Put plainly: NCI tumour cell line growth inhibition, 48 h.
As for `COC1(OC)CCc2c(sc3ncnc(Nc4cccc(Br)c4)c23)C1`, the TGI was more than 100 µM.
On the same count and under the same terms, with `C=CCC(CCC(C)=O)(C(=O)OCC)C(=O)OCC` the figure was more than 100 µM; with `CC(C)C(Cl)CCC(C)(Cl)C(=O)CBr` (stereo not drawn), 23.1 µM.
On the same count and under the same terms, with `Cn1c2ccccc2c(=O)c2c(O)cc3c(c21)C1OCC(C)(O)C1O3` (stereo not drawn) the figure was 37.5 µM; with `COC(=O)[C@@H]1CO[C@H](C(C)(C)C)N1C(=O)N1C=CC(=O)C[C@H]1C`, more than 100 µM.
In turn, `NCCOc1cccc(C2(N3CCCCC3)CCCCC2)c1` showed a TGI of 38.5 µM.
On the same count and under the same terms, with `O=C1CC(O)c2cscc21` (stereo not drawn) the figure was more than 100 µM; with `O=[N+]([O-])c1cccc2nc3ccccc3c(NCCCCCNc3c4ccccc4nc4cccc([N+](=O)[O-])c34)c12`, 0.512 µM.
